Our source for the IC50 values is patent US11453647B2, “Benzimidazole derivatives as adenosine receptor antagonists” (Merck Patent GmbH, priority 2017, dated 2022).

Common to all, as to assay type: cell-based
In one assay the target is T1, human A2A receptor (Homo sapiens, UniProt P29274).
T1 construct: expressed in transfected cells; host or cells: HEK293
Kind of assay: functional cAMP (HTRF) assay, recombinant HEK293 cells expressing human A2A receptor, agonist NECA. (Time-resolved FRET reads energy transfer from a long-lived donor to a nearby acceptor.)

The target in a further assay is T2, human A3 receptor (Homo sapiens, UniProt P0DMS8).
T2 construct: expressed in transfected cells; host or cells: CHO
T2 sequence (P0DMS8 1-318): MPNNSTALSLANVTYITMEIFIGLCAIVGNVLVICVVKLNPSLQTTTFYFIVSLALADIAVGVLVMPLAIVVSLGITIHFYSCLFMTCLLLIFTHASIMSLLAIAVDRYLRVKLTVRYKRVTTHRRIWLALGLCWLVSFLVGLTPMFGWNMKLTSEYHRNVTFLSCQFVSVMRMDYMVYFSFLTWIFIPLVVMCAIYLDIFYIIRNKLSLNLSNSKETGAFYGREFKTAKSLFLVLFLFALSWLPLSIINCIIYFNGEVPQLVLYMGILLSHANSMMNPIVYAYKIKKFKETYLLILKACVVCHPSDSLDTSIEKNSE
The assay can be described thus: functional cAMP (HTRF) assay, recombinant CHO cells expressing human A3 receptor, forskolin, agonist IB-MECA. The method in brief:
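Recombinant CHO cells expressing A1 or A3 receptor (Gi-coupled) were stimulated with forskolin together with test compound and agonist (CPA for A1, IB-MECA for A3), incubated 30 min, then cellular cAMP was read by HTRF. Data were normalized to inhibitor control and DMSO neutral control, then curve-fitted.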

Another assay concerns the target T3, A2B receptors (Homo sapiens, UniProt P29275).
T3 sequence (P29275 1-332): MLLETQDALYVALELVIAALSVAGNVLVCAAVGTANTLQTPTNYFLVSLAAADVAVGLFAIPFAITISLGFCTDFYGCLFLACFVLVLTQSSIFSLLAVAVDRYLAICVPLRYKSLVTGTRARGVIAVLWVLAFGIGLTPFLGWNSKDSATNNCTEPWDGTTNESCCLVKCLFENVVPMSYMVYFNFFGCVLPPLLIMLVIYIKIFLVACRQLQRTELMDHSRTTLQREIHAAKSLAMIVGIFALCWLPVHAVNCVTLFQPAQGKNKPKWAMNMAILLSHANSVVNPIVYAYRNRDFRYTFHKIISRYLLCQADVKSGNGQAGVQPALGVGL
The assay can be described thus: functional cAMP (HTRF) assay, recombinant HEK293 cells expressing human A2B receptor, agonist NECA. On the set-up: expressed in transfected cells; host or cells: HEK293.

The target of the next assay is T4, human A1 receptor (Homo sapiens, UniProt P30542).
T4 construct: expressed in transfected cells; host or cells: CHO
T4 sequence (P30542 1-326): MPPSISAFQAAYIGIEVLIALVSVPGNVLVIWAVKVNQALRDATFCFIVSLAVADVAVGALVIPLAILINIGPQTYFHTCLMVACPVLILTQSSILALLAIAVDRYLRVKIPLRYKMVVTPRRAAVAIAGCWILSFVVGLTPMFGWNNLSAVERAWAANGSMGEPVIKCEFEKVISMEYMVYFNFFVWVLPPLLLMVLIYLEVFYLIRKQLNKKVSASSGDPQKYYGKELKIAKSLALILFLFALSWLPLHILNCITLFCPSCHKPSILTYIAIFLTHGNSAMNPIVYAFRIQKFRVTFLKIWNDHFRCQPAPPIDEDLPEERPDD
The assay can be described thus: functional cAMP (HTRF) assay, recombinant CHO cells expressing human A1 receptor, forskolin, agonist CPA. The method, then: The functional activities of human A2A, A2B, A1 and A3 receptors were determined by quantification of cAMP, being the second messenger for adenosine receptors.
For human A1 and A3 receptors, recombinant CHO cells, expressing either A1 or A3-receptor, were used. As both receptors couple to Gi proteins, the assay protocol was adapted:
Cells were seeded into 384-well plates, forskolin, test compounds and agonists (CPA for A1- and IB-MECA for A3-receptor) were added. After 30 min incubation, HTRF reagents (cAMP dynamic 2, Cis Bio) were added and the cellular cAMP levels were determined using the ENVISION (Perkin Elmer) plate reader. Obtained raw data were normalized against the inhibitor control and the neural control (DMSO) and the normalized data were fitted using GeneData software.

Molecules are shown by their SMILES.

T1 sequence (P29274 whole entry): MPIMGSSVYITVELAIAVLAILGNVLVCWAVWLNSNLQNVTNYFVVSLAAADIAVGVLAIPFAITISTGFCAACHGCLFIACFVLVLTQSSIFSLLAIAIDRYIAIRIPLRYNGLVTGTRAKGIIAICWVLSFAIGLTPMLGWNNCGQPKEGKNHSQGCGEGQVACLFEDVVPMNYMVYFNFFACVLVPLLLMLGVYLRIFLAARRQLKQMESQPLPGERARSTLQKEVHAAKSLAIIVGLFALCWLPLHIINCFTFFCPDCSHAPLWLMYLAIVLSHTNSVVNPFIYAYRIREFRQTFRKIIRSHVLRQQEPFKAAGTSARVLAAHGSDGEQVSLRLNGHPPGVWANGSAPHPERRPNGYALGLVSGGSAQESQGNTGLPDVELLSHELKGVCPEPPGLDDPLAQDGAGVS

Usually IC50 stands for the point on the concentration scale where inhibition reaches its midpoint. `COc1ccc(C2CCOCC2)c2nc(NC(=O)c3ccnc(N4CCC5(CCOC5)C4)c3)[nH]c12` (stereo not drawn) [compound 119, N-[7-methoxy-4-(oxan-4-yl)-1H-1,3-benzodiazol-2-yl]-2-{2-oxa-7-azaspiro[4.4]nonan-7-yl}pyridine-4-carboxamide]: the IC50 at human A2A receptor was below 10 nM; on human A3 receptor, above 1000 nM; on A2B receptors, above 1000 nM; on human A1 receptor, above 1000 nM.
Regarding `COCCn1cc(C(=O)Nc2nc3c(-c4ccc5[nH]nc(C)c5c4)ccc(OC)c3[nH]2)cn1` [compound 282, N-[7-methoxy-4-(3-methyl-1H-indazol-5-yl)-1H-1,3-benzodiazol-2-yl]-1-(2-methoxyethyl)-1H-pyrazole-4-carboxamide], the half-inhibitory concentration (IC50) is below 100 nM at human A2A receptor, below 1000 nM at human A3 receptor, below 100 nM on A2B receptors and below 1000 nM at human A1 receptor.
With `C#CCC1(O)CCN(C(=O)Nc2nc3c(C4CCOCC4)ccc(OC)c3[nH]2)CC1` [compound 102, 4-hydroxy-N-[7-methoxy-4-(oxan-4-yl)-1H-1,3-benzodiazol-2-yl]-4-(prop-2-yn-1-yl)piperidine-1-carboxamide], the IC50 at human A2A receptor is below 10 nM; on human A3 receptor, above 1000 nM; at A2B receptors, above 1000 nM; at human A1 receptor, above 1000 nM.
On to `COc1ccc(-c2ccccc2)c2nc(NC(=O)c3ccc(N4C(=O)CCC4=O)cc3)[nH]c12` [compound 285, 4-(2,5-dioxopyrrolidin-1-yl)-N-(7-methoxy-4-phenyl-1H-1,3-benzodiazol-2-yl)benzamide], for which the IC50 on human A2A receptor is below 100 nM; on human A3 receptor, below 1000 nM; at A2B receptors, below 10 nM; on human A1 receptor, below 1000 nM.
Turning to `COc1ccc(-c2ccc(F)cc2)c2nc(NC(=O)c3ccc(C(=O)N(C)C)cc3)[nH]c12` [compound 316, N4-[4-(4-fluorophenyl)-7-methoxy-1H-1,3-benzodiazol-2-yl]-N1,N1-dimethylbenzene-1,4-dicarboxamide], the IC50 is below 10 nM at human A2A receptor, below 1000 nM on human A3 receptor, below 10 nM on A2B receptors and below 1000 nM at human A1 receptor.
In the case of `COc1ccc(-c2cnn(C)c2)c2[nH]c(NC(=O)c3cnn(C)c3)nc12` [compound 160, N-[7-methoxy-4-(1-methyl-1H-pyrazol-4-yl)-1H-1,3-benzodiazol-2-yl]-1-methyl-1H-pyrazole-4-carboxamide], the IC50 on human A2A receptor is below 10 nM; at human A3 receptor, below 100 nM; at A2B receptors, below 100 nM; on human A1 receptor, above 1000 nM.
For `COc1ccc(N2CCOCC2)c2nc(NC(=O)c3ccc(F)cc3)[nH]c12` [compound 63, 4-fluoro-N-[7-methoxy-4-(morpholin-4-yl)-1H-1,3-benzodiazol-2-yl]benzamide], the 50% inhibitory concentration (IC50) on human A2A receptor is below 10 nM; at human A3 receptor, below 100 nM; on A2B receptors, below 1000 nM; on human A1 receptor it was above 1000 nM.
For `COc1ccc(-c2ccc(F)cc2)c2nc(NC(=O)c3cnn(C)c3)[nH]c12` [compound 318, N-[4-(4-fluorophenyl)-7-methoxy-1H-1,3-benzodiazol-2-yl]-1-methyl-1H-pyrazole-4-carboxamide], in that order: below 10 nM, below 100 nM, below 10 nM and below 100 nM.
`COc1ccc(C2CCOCC2)c2nc(NC(=O)c3cnn(C)c3)[nH]c12` [compound 224, N-[7-methoxy-4-(oxan-4-yl)-1H-1,3-benzodiazol-2-yl]-1-methyl-1H-pyrazole-4-carboxamide]: the IC50 on human A2A receptor was below 10 nM; at human A3 receptor it was below 1000 nM; at A2B receptors, below 100 nM; at human A1 receptor, above 1000 nM.
For `COc1ccc(C2CCOCC2)c2nc(NC(=O)N3CC[C@@]4(CCOC4)C3)[nH]c12` [compound 150, (5R)-N-[7-methoxy-4-(oxan-4-yl)-1H-1,3-benzodiazol-2-yl]-2-oxa-7-azaspiro[4.4]nonane-7-carboxamide], in that order: below 10 nM, above 1000 nM, above 1000 nM and above 1000 nM.
For `COc1ccc(-c2cnn(C)c2)c2nc(NC(=O)c3ccnc(N4CC[C@](C)(O)C4)c3)[nH]c12` [compound 104, 2-[(3S)-3-hydroxy-3-methylpyrrolidin-1-yl]-N-[7-methoxy-4-(1-methyl-1H-pyrazol-4-yl)-1H-1,3-benzodiazol-2-yl]pyridine-4-carboxamide], in that order: below 10 nM, below 1000 nM, above 1000 nM and above 1000 nM.
On to `COc1ccc(-c2cnn(C)c2)c2nc(NC(=O)c3ccnc(N4CCC5(CCOC5)C4)c3)[nH]c12` (stereo not drawn) [compound 106, N-[7-methoxy-4-(1-methyl-1H-pyrazol-4-yl)-1H-1,3-benzodiazol-2-yl]-2-{2-oxa-7-azaspiro[4.4]nonan-7-yl}pyridine-4-carboxamide], for which the IC50 on human A2A receptor is below 10 nM; on human A3 receptor, below 1000 nM; on A2B receptors, above 1000 nM; at human A1 receptor, above 1000 nM.
For the compound `COc1ccc(-c2cnn(C)c2)c2nc(NC(=O)c3ccc(N4C(=O)CCC4=O)cc3)[nH]c12` [compound 248, 4-(2,5-dioxopyrrolidin-1-yl)-N-[7-methoxy-4-(1-methyl-1H-pyrazol-4-yl)-1H-1,3-benzodiazol-2-yl]benzamide], the IC50 on human A2A receptor was below 10 nM; on human A3 receptor, above 1000 nM; at A2B receptors, below 100 nM; on human A1 receptor, above 1000 nM.
Regarding `COc1ccc(-c2cccc(F)c2)c2nc(NC(=O)N3CCC(C)(O)CC3)[nH]c12` [compound 217, N-[4-(3-fluorophenyl)-7-methoxy-1H-1,3-benzodiazol-2-yl]-4-hydroxy-4-methylpiperidine-1-carboxamide], the IC50 on human A2A receptor is below 10 nM; at human A3 receptor it was above 1000 nM; at A2B receptors, below 100 nM; on human A1 receptor, below 1000 nM.
For `COc1ccc(-c2cccnc2)c2nc(NC(=O)c3ccc(C(=O)N(C)C)cc3)[nH]c12` [compound 259, N4-[7-methoxy-4-(pyridin-3-yl)-1H-1,3-benzodiazol-2-yl]-N1,N1-dimethylbenzene-1,4-dicarboxamide], in that order: below 10 nM, above 1000 nM, below 10 nM and below 1000 nM.
For `COc1ccc(C2CCOCC2)c2nc(NC(=O)c3ccnc(N4CC[C@]5(CCOC5)C4)c3)[nH]c12` [compound 154, N-[7-methoxy-4-(oxan-4-yl)-1H-1,3-benzodiazol-2-yl]-2-[(5S)-2-oxa-7-azaspiro[4.4]nonan-7-yl]pyridine-4-carboxamide], in that order: below 10 nM, below 1000 nM, above 1000 nM and above 1000 nM.
For `COc1ccc(C2CCOCC2)c2nc(NC(=O)c3ccnc(N4CC[C@@]5(CCOC5)C4)c3)[nH]c12` [compound 153, N-[7-methoxy-4-(oxan-4-yl)-1H-1,3-benzodiazol-2-yl]-2-[(5R)-2-oxa-7-azaspiro[4.4]nonan-7-yl]pyridine-4-carboxamide], in that order: below 10 nM, above 1000 nM, above 1000 nM and above 1000 nM.
`COCCn1cc(C(=O)Nc2nc3c(-c4cccc5[nH]ncc45)ccc(OC)c3[nH]2)cn1` [compound 279, N-[4-(1H-indazol-4-yl)-7-methoxy-1H-1,3-benzodiazol-2-yl]-1-(2-methoxyethyl)-1H-pyrazole-4-carboxamide]: the IC50 on human A2A receptor is below 100 nM; at human A3 receptor, below 1000 nM; on A2B receptors it was below 100 nM; at human A1 receptor, below 1000 nM.
